Assay results: the NIST ThermoML archive (doi:10.1016/j.fluid.2005.01.001)

Settings: Liquid

FCC(F)(F)F [1,1,1,2-tetrafluoroethane]
Settings	vapor or sublimation pressure [kPa]
277.22 K	339.5
279.24 K	364
281.25 K	389.7
283.24 K	416.7
285.26 K	445.4
287.27 K	475.4
289.27 K	506.9
291.29 K	539.9
293.31 K	575.1
295.3 K	610.8
297.32 K	649.3
299.21 K	685.5
299.31 K	688.7
299.34 K	689.4
301.19 K	726.7
301.3 K	730
303.06 K	767
303.19 K	769.8
303.31 K	773.5
305.33 K	819.1
307.34 K	866.6
309.35 K	916
311.35 K	967.3
313.31 K	1019.3
315.36 K	1076.9
317.32 K	1133
319.38 K	1195.5
321.34 K	1256.1
329.37 K	1532.3
335.39 K	1767.4
337.41 K	1851.9
339.41 K	1939.2
341.43 K	2029.5
343.43 K	2123
347.44 K	2319.8
349.46 K	2419.4
351.46 K	2530.3
353.48 K	2641.1
355.48 K	2755.4
360.48 K	3054.3

COC [dimethyl ether]
Settings	vapor or sublimation pressure [kPa]
278.25 K	317.6
283.2 K	373.6
288.19 K	437.4
293.2 K	509.4
298.19 K	589.6
303.18 K	679.2
303.19 K	678.1
308.19 K	778.7
313.2 K	888.8
318.19 K	1009.5
323.28 K	1144.5
323.37 K	1146.2
328.25 K	1289.2
333.23 K	1447.2
338.23 K	1619.9
343.18 K	1805.3
343.41 K	1814.4
347.42 K	1976.8
348.17 K	2007.3
351.44 K	2149.6
353.1 K	2224.5
353.45 K	2240
355.08 K	2315.6
355.46 K	2333.3
357.49 K	2429.5
359.49 K	2528.5
360.52 K	2579.1
